Measured values reported in patent US20090214696A1, “Lycopene Incorporation Into Egg Yolks” (priority 2005, published 2009).
Read-outs that look alike come from different tables or passages of the source.

Assays:
[1] = Study 2: yolk and plasma lycopene/lutein by UV/VIS spectrophotometer; format: in vivo, Second Cycle Hyline W36 Hens
From the text: (§1) Commercial laying hen diet (corn, soybean, from NuWest) was supplemented with lycopene and lutein (DSM). Second Cycle Hyline W36 Hens were housed in standard lay cages. Dependant Variables: Yolks and Plasma. Lipid Extraction was done as previously described (Koutsos at al. 2003 J Nutr 133:1132-1138). A UV/VIS spectrophotometer was use to measure absorbance at 464 nm for Lutein and 352 nm for Lycopene. For Studies 2 and 3, the Roche Colour Score was taken of egg yolks using a blind analysis. The following statistics were calculated: ANOVA for main effect of diet+days on diet and interactions and t-test for differences between means. Results were significant at p<0.05.
(§2) In Study 2, 5 hens were housed per cage and 3 cages were given treatment for 19 d on a diet at 100 g diet/bird*d. Lycopene and Lutein levels were increased and dispersed in H2O: Diet 1: Negative Control+3000 ml H2O; Diet 2: Negative Control+880 mg lycopene/kg diet +3000 ml H2O; Diet 3: Negative Control+5140 mg lycopene/kg diet+3000 ml H2O; Diet 4: Negative Control+7.8 mg Lutein/kg diet+3000 ml H2O. The Roche Yolk Colour Fan was used (FIG. 4, 5). […] Diet had no effect on Yolk Lutein and/or Lycopene (p>0.20 for all). Diet on Plasma lycopene had no effect (p=0.17). Plasma Lutein+Lycopene had no effect (p=0.07). Diet on Plasma Lutein: (p=0.04).

[2] = egg vs vegetable sources; cited from earlier work
[3] = Study 1: yolk and plasma lycopene/lutein by UV/VIS spectrophotometer; format: in vivo, second cycle laying hens (Hyline W36); details: Diet 4: 48 mg lycopene + 6.5 mg Lutein/kg diet, 19 d
Experimental: Lycopene is a carotenoid with potential anti-cancer functions. […] Therefore, second cycle laying hens (Hyline W36) were examined for their ability to absorb dietary lycopene and incorporate lycopene into egg yolks. A completely randomized design was used in which 3 levels of dietary lycopene (0, 1.0 and 5.7 mg/bird*day) or lycopene +lutein (5.7 mg lycopene+0.8 mg lutein/bird*day) were incorporated into the birds normal diet. Birds were housed in commercial cages with ad libitum access to water (n=3 cages/diet; 5 birds/cage), and were fed 120 g diet/bird*day. […] Future trials will examine increased dietary lycopene levels and routes of administration.
as §1, with “p<0.05. […]” for “p<0.05.”

[4] = Study 2: Roche Yolk Colour Fan; format: in vivo, Second Cycle Hyline W36 Hens; details: 880 or 5140 mg lycopene/kg diet or 7.8 mg Lutein/kg diet dispersed in H2O, 19 d
From the text: as §1, §2

[5] = Study 1: Roche color fan of egg yolks; format: in vivo, second cycle laying hens (Hyline W36); details: 0, 1.0 and 5.7 mg lycopene/bird*day, after 18 d
[6] = Study 3: Roche Yolk Colour Fan; format: in vivo, Second Cycle Hyline W36 Hens; details: control diet vs diets >1285 mg Lycopene, 15 d
From the text: as §1
(§3) In Study 3, 5 hens were housed per cage and 1 cage received treatment for 15 d on diet at 100 g diet/bird*d. Lycopene levels were increased and dispersed in H2O: Diet 1: Negative Control+3000 ml H2O; Diet 2: Negative Control+880 mg lycopene/kg diet+3000 ml H2O; Diet 3: Negative Control+1285 mg lycopene/kg diet+3000 ml H2O; Diet 4: Negative Control +2570 mg lycopene/kg diet+3000 ml H2O; Diet 5: Negative Control+3855 mg lycopene/kg diet+3000 ml H2O; Diet 6: Negative Control+5140 mg lycopene/kg diet+3000 ml H2O; Diet 7: Negative Control+6425 mg lycopene/kg diet+3000 ml H2O; Diet 8: Diet 5+7.8 mg Lutein/kg diet; Diet 9: Diet 7+7.8 mg Lutein/kg diet.

[7] = acute toxicity, rats; cited from earlier work
[8] = Study 3: yolk and plasma lycopene/lutein by UV/VIS spectrophotometer; format: in vivo, Second Cycle Hyline W36 Hens
From the text: as §1, §3

[9] = Roche yolk color score of eggs from hens fed lycopene (Example 1 trial); format: in vivo, White Leghorn laying hens; details: 65, 257 or 650 mg lycopene/kg diet vs 0 mg, 15 days, p<0.05
From the text: (§4) The purpose of this trial was to examine the ability of the laying hen to deposit lycopene into the egg yolk for the purpose of supplementing human diets with additional lycopene. Control egg-laying hens were fed a 100 gram per bird basal diet for 15 days described in Table 1. Test hens were fed the basal diet supplemented with varying amounts of lycopene.
The California Polytechnic State University Animal Care and Use Committee approved all protocols. Using a completely randomized design, first-cycle White Leghorn (Hyline W36 strain, 23 wks old) laying hens from the Cal Poly University flock were randomly assigned to one of three dietary lycopene levels. Birds were fed a basal diet formulated to meet or exceed all nutrient requirements for laying hens (National Research Council 1994 Nutrient requirements of Poultry, Ninth Revised Edition, National Academy Press, Washington, D.C.) plus either 0, 65, 257, or 650 mg lycopene/kg diet; the lycopene provided was the all-trans isomer. Dietary levels were chosen based on the amount of lycopene contained in an uncooked 100 g tomato, as well as data concerning the absorption of lutein by laying hens (Leeson, S. and Caston, L. 2004 Poultry Science 83:1709-1712). Lycopene was supplied in a 5% powder form attached to a gelatin molecule. […]

[10] = Yolk lycopene concentration by HPLC in eggs from hens fed lycopene (Example 1 trial); format: in vivo, White Leghorn laying hens
From the text: as §4
The California Polytechnic State University Animal Care and Use Committee approved all protocols. Using a completely randomized design, first-cycle White Leghorn (Hyline W36 strain, 23 wks old) laying hens from the Cal Poly University flock were randomly assigned to one of three dietary lycopene levels. Birds were fed a basal diet formulated to meet or exceed all nutrient requirements for laying hens (National Research Council 1994 Nutrient requirements of Poultry, Ninth Revised Edition, National Academy Press, Washington, D.C.) plus either 0, 65, 257, or 650 mg lycopene/kg diet; the lycopene provided was the all-trans isomer. Dietary levels were chosen based on the amount of lycopene contained in an uncooked 100 g tomato, as well as data concerning the absorption of lutein by laying hens (Leeson, S. and Caston, L. 2004 Poultry Science 83:1709-1712). Lycopene was supplied in a 5% powder form attached to a gelatin molecule. In order for lycopene to be absorbed from this source, water (60° C.) was used to disperse the lycopene prior to dietary addition.
Hens were housed in commercial-type cages (n=3 cages/diet, 4 birds/cage, 135 sq. inches/bird) with ad libitum access to water. Hens were fed their assigned diets at 100 g/bird*day for 15 days. Eggs were gathered daily, and after 15 days of dietary feeding, analysis of egg lycopene levels were completed by Roche color score (a standardized set of color swatches corresponding to a number from 1-15) and by HPLC analysis (DSM International, Basel Switzerland).

[11] = acute toxicity, mice; cited from earlier work

| Yolk lutein ([1]; effect of diet, Study 2, p>0.20) | Yolk lutein ([3]; p<0.05) | Plasma lutein ([3]; p=0.36) | Structure (SMILES) | Absorbance from egg relative to absorbance from vegetable sources [2] | Roche Colour Fan score [4] | Plasma Lutein+Lycopene ([1]; in vivo) | Plasma lycopene ([1]; in vivo) | Yolk Lycopene ([1]; in vivo) | Egg yolk pigmentation (Roche color fan) [5] | Yolk pigment (Roche color scores) [6] | LD50 [7] | Yolk Lycopene ([8]; effect of diet, Study 3, p<0.01, Diets 2, 3 = 880, 1285 mg lycopene/kg diet) | Yolk Lutein+Lycopene ([8]; effect of diet, Study 3, p=0.94) | Plasma Lutein and/or Lycopene ([8]; in vivo) | Roche yolk color score [9] | Yolk lycopene levels (HPLC) ([10]; 257 or 650 mg lycopene/kg diet vs 65 mg/kg diet, 15 days, p<0.05) | concentration at 15 days ([10]; female, White Leghorn (Hyline W36), chicken (laying hen), egg yolk, oral, based upon HPLC data, large egg, read-out: Maximal concentration of yolk lycopene (converted)) | Dietary level for optimal lycopene incorporation into egg (regression analysis) ([10]; regression of yolk lycopene on dietary lycopene) | LD50 [11] |
| --- | --- | --- | --- | --- | --- | --- | --- | --- | --- | --- | --- | --- | --- | --- | --- | --- | --- | --- | --- |
| no effect | increased | no increase | CC1=C[C@H](O)CC(C)(C)[C@H]1/C=C/C(C)=C/C=C/C(C)=C/C=C/C=C(C)/C=C/C=C(C)/C=C/C1=C(C)C[C@@H](O)CC1(C)C [lutein] | approximately 2.12 times | no effect |  |  |  |  |  |  |  |  |  |  |  |  |  |  |
|  |  |  | CC(C)=CCC/C(C)=C/C=C/C(C)=C/C=C/C(C)=C/C=C/C=C(C)/C=C/C=C(C)/C=C/C=C(\C)CCC=C(C)C [lycopene] |  | 5140 mg>0 mg | no effect | no effect | no effect | no detectable change in pigmentation | consistent difference in yolk pigment | 10,000 mg/kg body weight | Diet 2, 3>1, 4, 5, 6, 8, 9 | no effect | no effect | significantly greater yolk color score | significantly greater lycopene levels | 4710 ng/g | 420 mg/kg diet | 3000 mg lycopene/kg body weight |
